Source: US20110229878A1, “HUMAN CONSENSUS SODIUM-IODIDE SYMPORTER REPRESSOR (NIS-REPRESSOR) BINDING SITE” (priority 2010, published 2011)

Tests used:
[1] = system: NIS-repressor (KAK1 nuclear extract); assay: EMSA competition against radiolabeled Probe-A (NRBS-P), KAK1 nuclear extract; type: binding, human; conditions: 60× unlabeled annealed double-stranded oligonucleotide
From the text: FIGS. 2A and 2B show the results of EMSA analysis followed by […] to define the core sequence for NRBS-D and cross competition of NRBS-D with NRBS-P. FIG. 2A depicts EMSA using KAK1 nuclear extract probed with radiolabeled SHIFT-4 containing NRBS-D in lanes 2 to 15. Unlabeled (30×) SHIFT-4, 4.1, 4.4, 4.2, 4.3, 4.5, 4.6, 4.7, and Probe-A were included in EMSA reactions in lanes 3, 4, 5, 6, 7, 11, 12, 13, and 15, respectively. The unlabeled (60×) annealed double-stranded oligonucleotides ds-411, ds-412, ds-413, and Comp-1 were added to the EMSA reactions in lanes 8, 9, 10, and 14, respectively. Lane 2 had no additional unlabeled competitor, and lane 1 contained radiolabeled SHIFT-4 probe only. In FIG. 2B, KAK1 nuclear extract was probed with radiolabeled Probe-A. The unlabeled 30× Probe-A, 60× annealed double-stranded Comp-1, and 60× annealed double-stranded ds-414 were added in EMSA reactions in lane 3, 4, and 5, respectively. The arrows point to the probe-specific bands.
EMSA: EMSA is carried out as follows: 3 μL nuclear extract, 1 μL end-labeled probe, 1 μL Poly(dI-dC)-Poly(dI-dC) (0.01 U/μL in 100 mM KCl, 20 mM HEPES, pH 8.0), 1 μL Salmon sperm DNA (500 ng/μL in nuclease-free water), 5 μL 4×EMSA buffer (400 mM KCl, 80 mM HEPES, 0.8 mM EDTA, 80% glycerol, 0.5 mM DTT) are mixed and distilled nuclease-free water is added to bring the reaction mix to 18 μL. […]

[2] = system: hNIS transcription in KAK1 cells; assay: Endogenous hNIS transcription in KAK1 cells; type: cell-based, human
From the text: (§1) Furthermore. […] PJ34 inhibition of PARP1 enzymatic activity may compromise the assembly, stability, or activity of the NIS-repressor protein complex.

[3] = system: hNIS transcription in Cal-62 cells; assay: Endogenous hNIS transcription in Cal-62 cells; type: cell-based, human
From the text: as §1

NIS promoter constructs = assay: Luciferase activity from NIS promoter constructs; type: cell-based, human
From the text: as §1

hNIS = assay: Endogenous hNIS mRNA / transcription in thyroid cancer cells (cell line not given); type: cell-based, human
From the text: Multiple cellular and nuclear factors are reported to be important for hNIS transcription, including: TSH (thyrotropin)/receptor (TSHr) (Riedel, et al. 2001), TTF-1 (Schmitt, et al. 2001), and Pax-8 (Pasca di Magliano, et al. 2000), but there are no clear examples of repressing transcription factors in thyroid cells or thyroid carcinomas. […] We also characterized NIS-repressor and investigated the identities of its components and mechanisms of its activity. This involved defining NRBS-P to a narrower region of hNIS promoter and utilizing it to probe nuclear extract, analyzing the probe-bound proteins with liquid chromatography coupled with tandem mass spectrometry (LC/MS/MS), to characterize NIS-repressor components. […] Pharmacological inhibition of PARP-1 activity with PJ34, a PARP-1 inhibitor, stimulated endogenous hNIS mRNA levels, providing evidence that PARP-1 acts as a negative regulatory factor for hNIS transcription and is a likely component of the NIS-repressor complex.
In summary, a second core sequence in the human sodium-iodine symporter (hNIS) promoter, NRBS-D, which is a binding site for a trans-active transcriptional repressor, NIS-repressor has been defined. […] A known inhibitor of PARP-1 enzymatic activity, PJ34, causes increased endogenous transcription of hNIS in genotypically verified thyroid cancer cells.

NIS-repressor = assay: EMSA pattern using KAK1 nuclear extract after epigenetic agents; type: binding, human
Procedure: EMSA: EMSA is carried out as follows: 3 μL nuclear extract, 1 μL end-labeled probe, 1 μL Poly(dI-dC)-Poly(dI-dC) (0.01 U/μL in 100 mM KCl, 20 mM HEPES, pH 8.0), 1 μL Salmon sperm DNA (500 ng/μL in nuclease-free water), 5 μL 4×EMSA buffer (400 mM KCl, 80 mM HEPES, 0.8 mM EDTA, 80% glycerol, 0.5 mM DTT) are mixed and distilled nuclease-free water is added to bring the reaction mix to 18 μL. The mixture is incubated on ice for 30 minutes, followed by addition of 2 μL of loading buffer (1×EMSA buffer, 0.25% Bromophenol Blue). A 7% non-denaturing PAGE gel is pre-run in 0.5×TBE (5.4 g/L Tris base, 2.75 g/L boric acid, 1 mM EDTA, pH 8.) for 30 minutes at 100V. The entire 20 μL EMSA reaction is loaded into one well of the polyacrylamide gel and run at 100V until the Bromophenol Blue dye has migrated to the end of the gel. The gel is dried on DEAE paper using a standard gel dryer and the dried gel is exposed to X-ray film. A retarded signal relative to free end-labeled probe indicates athe presence of a positive protein-probe interaction complex. When un-labeled DNA probe is added in the EMSA reaction mixture, loss of EMSA signal indicates the signal is probe-specific.

NIS transcription = conditions: Venkataraman et al. 1999; cited from earlier work
chromatin compaction = conditions: previous genomic DNase I digestion studies (Li et al. 2007); cited from earlier work

Row | Molecule | effect on EMSA pattern (NIS-repressor) | NIS transcription (NIS transcription) | effect on chromatin compaction (chromatin compaction) | further results
1 | ds-414: annealed double-stranded oligonucleotide 5′-ccttgttacagatggggaaactaaggccca-3′, −987 to −958 (SEQ ID NO.: 6) (sense CCTTGTTACAGATGGGGAAACTAAGGCCCA; annealed double-stranded unlabeled competitor, further chemistry not given here) | – | – | – | competition against radiolabeled Probe-A in EMSA [1]: strong competition
2 | CN(C)CC(=O)Nc1ccc2[nH]c(=O)c3ccccc3c2c1 [PJ34] | – | – | – | endogenous hNIS transcription [2]: stimulated; endogenous hNIS transcription [3]: stimulated; luciferase activity from NIS promoter constructs (NIS promoter constructs): effectively stimulated; endogenous transcription of hNIS (hNIS; genotypically verified thyroid cancer cells): increased; endogenous hNIS mRNA levels (hNIS; pharmacological inhibition of PARP-1 activity): stimulated
3 | CCCC(=O)[O-].[Na+] [sodium butyrate] | did not alter | restore | failed to demonstrate any effect | –
4 | Nc1ncn([C@@H]2O[C@H](CO)[C@@H](O)[C@H]2O)c(=O)n1 [5-azacytidine] | did not alter | restore | failed to demonstrate any effect | –
